Measured values reported in patent publication US20170253917A1, “METHODS AND SYSTEMS FOR DETERMINING ANTIBIOTIC SUSCEPTIBILITY” (priority 2016, published 2017).

Test system: 1496 clinical isolates of E. coli
Assay: Phenotypic antibiotic susceptibility testing, MicroScan WalkAway plus System, Neg MIC 45 panel
Format: cell-based
Details: for Phenotype of the E. coli isolates in words: 1496 E. coli isolates; for Measured Phenotype Susceptible (%) / Measured Phenotype Resistant (%): share of the 1496 E. coli isolates; for Measured Phenotype Resistant (%): resistant or intermediate combined as resistant
Description: Phenotypic antibiotic susceptibility testing was performed and an antibiotic response of resistant, intermediate or susceptible was assigned to each E. coli isolate per antibiotic based on minimal inhibitory concentrations as described in the MicroScan product insert. Phenotypic antibiotic susceptibility testing was performed on the 1496 E. coli isolates using the MicroScan WalkAway plus System and the Neg MIC 45 panel (P/N B1017-424) which covers 25 antibiotics. Cryopreserved isolates were sub-cultured twice on blood agar plates prior to antibiotic susceptibility testing. The MicroScan instrument was used to assign an antibiotic response of resistant, intermediate or susceptible for each isolate per antibiotic based on minimal inhibitory concentrations as described in the MicroScan product insert. Assignments of resistant or intermediate were combined and reported as resistant in this example. Assignments of susceptible are reported as such in this example.

Compound	Phenotype of the E. coli isolates in words	Measured Phenotype Susceptible (%)	Measured Phenotype Resistant (%)
NCC[C@H](O)C(=O)N[C@@H]1C[C@H](N)[C@@H](O[C@H]2O[C@H](CN)[C@@H](O)[C@H](O)[C@H]2O)[C@H](O)[C@H]1O[C@H]1O[C@H](CO)[C@@H](O)[C@H](N)[C@H]1O [Amikacin]	the vast majority of isolates exhibited phenotypic susceptibility	94%	6%
CC1(C)S[C@@H]2[C@H](NC(=O)[C@H](N)c3ccccc3)C(=O)N2[C@H]1C(=O)O [Ampicillin]	the vast majority of isolates exhibited phenotypic resistance	3%	97%
C[C@H]1[C@H](NC(=O)/C(=N\OC(C)(C)C(=O)O)c2csc(N)n2)C(=O)N1S(=O)(=O)O [Aztreonam]	–	9%	91%
Cc1nnc(SCC2=C(C(=O)O)N3C(=O)[C@@H](NC(=O)Cn4cnnn4)[C@H]3SC2)s1 [Cefazolin]	the vast majority of isolates exhibited phenotypic resistance	5%	95%
CO/N=C(\C(=O)N[C@@H]1C(=O)N2C(C(=O)[O-])=C(C[N+]3(C)CCCC3)CS[C@H]12)c1csc(N)n1 [Cefepime]	–	10%	90%
CO/N=C(\C(=O)N[C@@H]1C(=O)N2C(C(=O)O)=C(COC(C)=O)CS[C@H]12)c1csc(N)n1 [Cefotaxime]	–	9%	91%
CO[C@@]1(NC(=O)Cc2cccs2)C(=O)N2C(C(=O)O)=C(COC(N)=O)CS[C@@H]21 [Cefoxitin]	–	79%	21%
CC(C)(O/N=C(\C(=O)N[C@@H]1C(=O)N2C(C(=O)[O-])=C(C[n+]3ccccc3)CS[C@H]12)c1csc(N)n1)C(=O)O [Ceftazidime]	–	9%	91%
CO/N=C(\C(=O)N[C@@H]1C(=O)N2C(C(=O)O)=C(CSc3nc(=O)c(=O)[nH]n3C)CS[C@H]12)c1csc(N)n1 [Ceftriaxone]	–	8%	92%
CO/N=C(\C(=O)N[C@@H]1C(=O)N2C(C(=O)O)=C(COC(N)=O)CS[C@H]12)c1ccco1 [Cefuroxime]	–	7%	93%
C[C@@H](O)[C@H]1C(=O)N2C(C(=O)O)=C(S[C@@H]3CN[C@H](C(=O)Nc4cccc(C(=O)O)c4)C3)[C@H](C)[C@H]12 [Ertapenem]	the vast majority of isolates exhibited phenotypic susceptibility	98%	4%
C[C@@H](O)[C@H]1C(=O)N2C(C(=O)O)=C(SCCN=CN)C[C@H]12 [Imipenem]	–	97%	3%
C[C@H]1COc2c(N3CCN(C)CC3)c(F)cc3c(=O)c(C(=O)O)cn1c23 [Levofloxacin]	–	19%	81%
C[C@@H](O)[C@H]1C(=O)N2C(C(=O)O)=C(S[C@@H]3CN[C@H](C(=O)N(C)C)C3)[C@H](C)[C@H]12 [Meropenem]	the vast majority of isolates exhibited phenotypic susceptibility	98%	2%
CCN1CCN(C(=O)N[C@@H](C(=O)N[C@@H]2C(=O)N3[C@@H]2SC(C)(C)[C@@H]3C(=O)O)c2ccccc2)C(=O)C1=O [Piperacillin]	the vast majority of isolates exhibited phenotypic resistance	4%	96%
CN(C)[C@@H]1C(O)=C(C(N)=O)C(=O)[C@@]2(O)C(O)=C3C(=O)c4c(O)cccc4[C@@](C)(O)[C@H]3C[C@@H]12 [Tetracycline]	–	32%	68%
CN(C)c1cc(NC(=O)CNC(C)(C)C)c(O)c2c1C[C@H]1C[C@H]3[C@H](N(C)C)C(O)=C(C(N)=O)C(=O)[C@@]3(O)C(O)=C1C2=O [Tigecycline]	the vast majority of isolates exhibited phenotypic susceptibility	99.6%	0.4%
NC[C@H]1O[C@H](O[C@H]2[C@H](O)[C@@H](O[C@H]3O[C@H](CO)[C@@H](O)[C@H](N)[C@H]3O)[C@H](N)C[C@@H]2N)[C@H](N)C[C@@H]1O [Tobramycin]	–	45%	55%
Amoxicillin/K Clavulanate	–	43%	57%
Ampicillin/Sulbactam	–	16%	84%
Gentamicin	–	61%	39%
Piperacillin/Tazobactam	–	84%	16%
Ticarcillin/K Clavulanate	–	56%	44%
Trimethoprim/Sulfamethoxazole	–	36%	64%
